The test system of this experiment is human gastric cancer cell line SGC7901. Put plainly: CCK-8 in vitro cytotoxicity test, SGC7901. The settings on record: read-out: IC50 (nM) SGC7901; CCK-8, 72 h exposure, n = 3. The experiment is classed as cell-based.

From publication PMC9134009 (RSC Advances, 2021) come the findings set out here.

As to `N.N.[Cl][Pt][Cl]` [cisplatin], the IC50 was 927 ± 77.6 nM.
